Measurements: patent publication US20150252022A1, “RETINOIC ACID RECEPTOR-RELATED ORPHAN RECEPTOR MODULATORS AND USES THEREOF” (INNOV17 LLC, priority 2014, published 2015)
pIC50: −log10 of the molar value.

Tests used:
Assay type in all cases: cell-based
Conditions in all cases: 72 h; human CD4+ T cells under TH17-polarizing conditions, 3 days, supernatant ELISA
IL-17F = experiment: Human TH17 Cytokine Inhibition as measured by ELISA (IL-17F)
Description: (§1) Peripheral blood mononuclear cells (PBMCs) were sourced from freshly prepared leukocyte enriched plasma (buffy coat) from healthy donors (New York Blood Center). PBMCs were isolated by density gradient centrifugation using Ficoll-Paque™ PLUS (GE Healthcare). Human CD4+ T cells were seeded into 96-well plates (5×10^4 cells/well) and activated with plate-bound anti-human (h)-CD3 antibody and soluble h-aCD28 (both at 1 ug/ml; eBioscience) and differentiated into TH17 cells with 20 ng/mL h-IL-6, 5 ng/mL h-TGF-β1, 10 ng/mL h-IL-23 (eBioscience) and 10 ng/mL IL-1β (Miltenyi Biotec) in serum-free TexMACS Medium (Miltenyi Biotec) supplemented with 1% Penicillin/Streptomycin (Lonza) for 3 days. CD4+ T cells propagated under TH17-polarizing conditions were cultured in the presence or absence of various concentrations of compounds with a final concentration of 0.1% DMSO. Supernatants were collected and stored at −20° C. until assayed for IL-17A, IL-17F and IL-21 levels by “Ready-Set-Go” ELISA kits (eBioscience) as per manufacturer's instructions. Endpoint absorbance was read at 450 nm using a microplate reader (Perkin Elmer).

IL-21 = experiment: Human TH17 Cytokine Inhibition as measured by ELISA (IL-21)
Description: as §1

IL-17A = experiment: Human TH17 Cytokine Inhibition as measured by ELISA (IL-17A)
Description: as §1

Row | Structure (SMILES) | pIC50 (IL-17F) | pIC50 (IL-21) | pIC50 (IL-17A)
1 | CC(C)C(=O)N1CCC(CN2CCc3cc(-c4cn[nH]c4)ccc32)CC1 [Example 45, 1-(4-((5-(1H-pyrazol-4-yl)indolin-1-yl)methyl)piperidin-1-yl)-2-methylpropan-1-one] | < 5.00 | < 5.00 | < 5.00
2 | O=C(c1ccccc1)N1CCCC(CN2CCc3cc(-c4cn[nH]c4)ccc32)CC1 (stereo not drawn) [Example 54, (4-((5-(1H-pyrazol-4-yl)indolin-1-yl)methyl)azepan-1-yl)(phenyl)methanone] | > 5.00 | > 5.00 | > 5.00
3 | O=C(Cc1ccccc1)N1CCCC(CN2CCc3cc(-c4cn[nH]c4)ccc32)CC1 (stereo not drawn) [Example 55, 1-(4-((5-(1H-pyrazol-4-yl)indolin-1-yl)methyl)azepan-1-yl)-2-phenylethanone] | > 5.00 | > 5.00 | > 5.00
4 | O=C(CCc1ccccc1)N1CCCC(CN2CCc3cc(-c4cn[nH]c4)ccc32)CC1 (stereo not drawn) [Example 56, 1-(4-((5-(1H-pyrazol-4-yl)indolin-1-yl)methyl)azepan-1-yl)-3-phenylpropan-1-one] | > 5.00 | > 5.00 | > 5.00
5 | O=C(CC1CCCCC1)N1CCCC(CN2CCc3cc(-c4cn[nH]c4)ccc32)CC1 (stereo not drawn) [Example 57, 1-(4-((5-(1H-pyrazol-4-yl)indolin-1-yl)methyl)azepan-1-yl)-2-cyclohexylethanone] | > 5.00 | > 5.00 | > 5.00
6 | O=C(C1CCCCC1)N1CCCC(Cn2ccc3cc(-c4cn[nH]c4)ccc32)CC1 (stereo not drawn) [Example 58, (4-((5-(1H-pyrazol-4-yl)-1H-indol-1-yl)methyl)azepan-1-yl)(cyclohexyl)methanone] | > 5.00 | > 5.00 | > 5.00
7 | CC(C)CC(=O)N1CCCC(Cn2ccc3cc(-c4cn[nH]c4)ccc32)CC1 (stereo not drawn) [Example 59, 1-(4-((5-(1H-pyrazol-4-yl)-1H-indol-1-yl)methyl)azepan-1-yl)-3-methylbutan-1-one] | > 5.00 | < 5.00 | > 5.00
8 | CC(C)C(=O)N1CCCC(Cn2ccc3cc(-c4cn[nH]c4)ccc32)CC1 (stereo not drawn) [Example 60, 1-(4-((5-(1H-pyrazol-4-yl)-1H-indol-1-yl)methyl)azepan-1-yl)-2-methylpropan-1-one] | > 5.00 | < 5.00 | > 5.00
9 | O=C(OCc1ccccc1)N1CCC(CN2CCc3cc(-c4cn[nH]c4)ccc32)C1 (stereo not drawn) [Example 62, benzyl 3-((5-(1H-pyrazol-4-yl)indolin-1-yl)methyl)pyrrolidine-1-carboxylate] | > 5.00 | < 5.00 | > 5.00
10 | O=C(NCc1ccccc1)N1CCC(CN2CCc3cc(-c4cn[nH]c4)ccc32)C1 (stereo not drawn) [Example 65, 3-((5-(1H-pyrazol-4-yl)indolin-1-yl)methyl)-N-benzylpyrrolidine-1-carboxamide] | > 5.00 | > 5.00 | > 5.00
11 | CC(C)CNC(=O)N1CCC(CN2CCc3cc(-c4cn[nH]c4)ccc32)C1 (stereo not drawn) [Example 67, 3-((5-(1H-pyrazol-4-yl)indolin-1-yl)methyl)-N-isobutylpyrrolidine-1-carboxamide] | > 5.00 | > 5.00 | > 5.00
12 | CC(C)COC(=O)N1CCC(CN2CCc3cc(-c4cn[nH]c4)ccc32)C1 (stereo not drawn) [Example 69, isobutyl 3-((5-(1H-pyrazol-4-yl)indolin-1-yl)methyl)pyrrolidine-1-carboxylate] | > 5.00 | > 5.00 | > 5.00
13 | O=C(OCc1ccccc1)N1CCC(CN2CCc3cc(-c4cn[nH]c4)ccc32)CC1 [Example 70, benzyl 4-((5-(1H-pyrazol-4-yl)indolin-1-yl)methyl)piperidine-1-carboxylate] | > 5.00 | > 5.00 | > 5.00
14 | CC(O)CC(=O)N1CCC(CN2CCc3cc(-c4cn[nH]c4)ccc32)CC1 (stereo not drawn) [Example 72, 1-(4-((5-(1H-pyrazol-4-yl)indolin-1-yl)methyl)piperidin-1-yl)-3-hydroxybutan-1-one] | < 5.00 | < 5.00 | < 5.00
15 | CC(C)CNC(=O)N1CCC(CN2CCc3cc(-c4cn[nH]c4)ccc32)CC1 [Example 74C, 4-((5-(1H-pyrazol-4-yl)indolin-1-yl)methyl)-N-isobutylpiperidine-1-carboxamide] | < 5.00 | < 5.00 | > 5.00
16 | CC(C)CNC(=O)N1CCC(CN2CCc3cc(-c4cnn(C(=O)NCC(C)C)c4)ccc32)CC1 [Example 74D, N-isobutyl-4-((5-(1-(isobutylcarbamoyl)-1H-pyrazol-4-yl)indolin-1-yl)methyl)piperidine-1-carboxamide] | > 5.00 | > 5.00 | > 5.00
17 | O=C(NCc1ccccc1)N1CCC(CN2CCc3cc(-c4cn[nH]c4)ccc32)CC1 [Example 76, 4-((5-(1H-pyrazol-4-yl)indolin-1-yl)methyl)-N-benzylpiperidine-1-carboxamide] | > 5.00 | > 5.00 | > 5.00
18 | O=C(CCc1ccccc1)N1CCC(Cn2ccc3cc(-c4cn[nH]c4)ccc32)CC1 [Example 79, 1-(4-((5-(1H-pyrazol-4-yl)-1H-indol-1-yl)methyl)piperidin-1-yl)-3-phenylpropan-1-one] | > 5.00 | > 5.00 | > 5.00
19 | O=C(Cc1ccccc1)N1CCC(Cn2ccc3cc(-c4cn[nH]c4)ccc32)CC1 [Example 88, 1-(4-((5-(1H-pyrazol-4-yl)-1H-indol-1-yl)methyl)piperidin-1-yl)-2-phenylethanone] | > 5.00 | > 5.00 | > 5.00
20 | O=C(CCCc1ccccc1)N1CCC(Cn2ccc3cc(-c4cn[nH]c4)ccc32)CC1 [Example 89, 1-(4-((5-(1H-pyrazol-4-yl)-1H-indol-1-yl)methyl)piperidin-1-yl)-4-phenylbutan-1-one] | > 5.00 | > 5.00 | > 5.00
21 | O=C(CCc1cnccn1)N1CCC(Cn2ccc3cc(-c4cn[nH]c4)ccc32)CC1 [Example 90, 1-(4-((5-(1H-pyrazol-4-yl)-1H-indol-1-yl)methyl)piperidin-1-yl)-3-(pyrazin-2-yl)propan-1-one] | > 5.00 | > 5.00 | < 5.00
22 | O=C(CCc1ccccn1)N1CCC(Cn2ccc3cc(-c4cn[nH]c4)ccc32)CC1 [Example 91, 1-(4-((5-(1H-pyrazol-4-yl)-1H-indol-1-yl)methyl)piperidin-1-yl)-3-(pyridin-2-yl)propan-1-one] | > 5.00 | > 5.00 | > 5.00
23 | O=C(COc1ccccc1)N1CCC(Cn2ccc3cc(-c4cn[nH]c4)ccc32)CC1 [Example 92, 1-(4-((5-(1H-pyrazol-4-yl)-1H-indol-1-yl)methyl)piperidin-1-yl)-2-phenoxyethanone] | > 5.00 | > 5.00 | > 5.00
24 | O=C(CCc1ccc(F)cc1)N1CCC(Cn2ccc3cc(-c4cn[nH]c4)ccc32)CC1 [Example 93, 1-(4-((5-(1H-pyrazol-4-yl)-1H-indol-1-yl)methyl)piperidin-1-yl)-3-(4-fluorophenyl)propan-1-one] | > 5.00 | > 5.00 | > 5.00
25 | O=C(CCc1cccc(F)c1)N1CCC(Cn2ccc3cc(-c4cn[nH]c4)ccc32)CC1 [Example 94, 1-(4-((5-(1H-pyrazol-4-yl)-1H-indol-1-yl)methyl)piperidin-1-yl)-3-(3-fluorophenyl)propan-1-one] | > 5.00 | > 5.00 | > 5.00
